Measurements: patent US12178917B2, “Beta-lactamase formulations and uses thereof” (Theriva Biologics, Inc., priority 2014, dated 2024)

Key:
[1] = test system: intestinal microbiome; test: P3A-mediated microbiome protection in humanized pigs, 16S rRNA sequencing of fecal DNA; type: in vivo, gnotobiotic pigs populated with human adult fecal microflora; settings: feces collected on Day 14; antibiotics IP 50 mg/kg 4 days; P3A 75 mg/dose orally 4 times a day 7 days
[2] = in vivo; parameters: species or system Yorkshire piglets; settings: Yorkshire, pig; for CRO serum levels: iv, 50 mg/kg
Description: A total of 10 pigs were treated once a day with IV ceftriaxone (CRO; 50 mg/kg) for a total of 7 days. A cohort of 5 pigs also received oral P3A (75 mg, four times a day), starting the day before CRO treatment and extending one day after CRO was stopped, for a total of 9 days. On Day 2 of CRO treatment, serum was collected 1, 6, and 19 hours after CRO administration. Serum was assayed for CRO levels using a validated high-performance liquid chromatography assay. […] The CRO levels in the serum collected at 19 hours was below the limit of detection of the assay (0.5 ug/mL). For both sets of histograms (1 hour and 6 hours), the left bar is ceftriaxone alone and the right bar is ceftriaxone and P3A.
Another pig study was performed to determine if oral administration of P3A (i.e. SYN-004) had any effect on the systemic levels of antibiotics. For this study, ten Yorkshire piglets, approximately 2 months old and weighing approximately 20 kg were treated with intravenous ceftriaxone (CRO) at 50 mg/kg once a day for seven days. Five animals also received P3A capsules (1 capsule containing 75 mg of P3A, four times a day) beginning the day before CRO treatment and extending to one day after CRO treatment, for a total of nine days. Specifically, the P3A delayed-release capsules as described in Examples 1 and 2 were administered to the animals. On day 2, animals were anesthetized and approximately 9 mls of blood drawn from the vena cava at three timepoints, 1 hour, 6 hours, and 19 hours after CRO administration. Blood was immediately dispensed into a serum separator vacutainer tube. After coagulation, samples were centrifuged and the serum was transferred to a cryovial and stored at −80° C. until analysis. CRO in the serum samples was quantified using a validated high-performance liquid chromatography assay (Owens et al., 2001, Int. J. Antimicrobial Agents, 17:483). A standard curve for CRO was prepared in negative control (untreated) pig serum and contained 6 points ranging from 0.5 to 50 ug/mL. The assay was linear over a range of 0.5 to 50 ug/mL. […]

[3] = test system: intestinal microbiome; test: Whole genome shotgun sequencing and comparative metagenomics of pig fecal samples; type: in vivo, gnotobiotic pigs populated with human adult fecal microflora; settings: for number of bacterial taxa, Genus / number of bacterial taxa, Species / number of bacterial taxa, Strain/sub-species: per treatment group, pig fecal samples
Description: In order to study the ability of P3A to protect the intestinal microbiome from antibiotics-induced (e.g., ceftriaxone (CRO)-induced) damage, pig fecal samples obtained from the study described above were subjected to additional genomic analysis. Specifically, the 16S rRNA gene V1V2 region was sequenced. In addition, fecal DNA was subjected to whole genome shotgun sequencing. Shotgun sequencing was performed using Illumina HiSeq RAPID RUN, targeting 100 bp single read with the aim to achieve approximately 10-20 million reads per sample (Table 6),
These sequence data were classified taxonomically to identify microbial communities associated with the pig fecal samples. Taxonomic classification was performed using bioInformatics algorithms and curated genome databases. Briefly, raw, unassembled shotgun sequence reads were probed against curated GeneBook bacterial and viral databases using GENIUS software package for rapid identification of bacteria communities as well as their relative abundance (Hasan of al., 2014, PLoS ONE 9:e97699; Lax et al., 2014, Science 345:1048). The analyses identified 139 bacterial strains, 79 species, and 35 genera among the treatment groups (Table 7).
Comparative metagenomics analyses were performed by creating heatmaps based on the relative abundance of each bacterial strain in each sample (see FIGS. 11A and 11B) and at the bacterial genus level (see FIG. 12) using the NMF R software package (Gaujoux and Seoighe, 2010, BMC Bioinformatics, 11:367). The samples were clustered using the maximum distance function and the Ward Hierarchical Clustering algorithm. The distance function was used to measure the difference in composition between each of the samples. The clustering algorithm used the distances between each of the samples to create a dendrogram that clustered samples with similar compositions, including both the presence and absence of organisms, in the same clades.
Comparative metagenomics analyses were also performed to investigate changes in the microbiome across different treatment groups. For these analyses, the centroid classification method from the PamR package (Tibshirani of al., 2002, PNAS 99:6567), was used to compare the average frequency (absolute abundance) of each bacterial strain in the samples. The deviation of the centroid of each bacterial strain from each study group was graphed by the overall centroid of all the study groups (FIGS. 13A and 13B).
As the number of sequence reads generated from each individual sample was variable, subsamples from each sample were chosen to represent a subset of 10 million reads. This was done to avoid any bias due to different sample sizes and to enable the measurement of the absolute abundance of the bacterial organisms in the samples. Using these subsets to reduce bias, the comparative metagenomics analyses were performed as described previously for FIGS. 13A and 13B by graphing the deviation of the centroid of each bacterial strain from each study group by the overall centroid of all the study groups (FIGS. 14A and 14B).

[4] = test system: ampicillin-resistant aerobes including those of the phylum Proteobacteria; test: Plating of Day 21 feces on LB+amp plates; type: in vivo, gnotobiotic pigs populated with human adult fecal microflora; settings: aerobic conditions, 37° C.
Description: Equal quantities of diluted feces collected from animals at necropsy were plated on LB+amp plates and grown under aerobic conditions at 37° C., The colonies were counted while taking into account the dilution factor.
The gastrointestinal (GI) tract of 5 day old gnotobiotic pigs was populated with human adult fecal microflora. Two days later, animals received antibiotics (clindamycin or CRO, IP, 50 mg/kg) for 4 days. P3A was delivered orally 4 times a day (75 mg/dose) for 7 days beginning the day before CRO administration. Specifically, the P3A delayed-release capsules as described in Examples 1 and 2 were administered to the animals. C. difficile (2.6×10^6 cfu) was delivered orally to all animals on Day 13. Feces were collected on Days 11, 12, 14, 18, 20 directly from the rectum using sterile cotton swabs and at necropsy on Day 21 directly from the intestinal tract. […] The levels of a specific bacterial population expected to be sensitive to CRO, but not to clindamycin, ampicillin-resistant aerobes including those of the phylum Proteobacteria, were assessed by plating equal amounts of Day 21 feces on LB+amp plates. Fecal C. difficile Toxin A and interleukin-8 (ILS) were assessed via ELISA as a measure of C. difficile infection (CDI). Intestinal tracts collected at necropsy on Day 21 were evaluated histologically for signs of CDI.

[5] = species-level centroid classification vs Group 1 (Control)

Row | SMILES | phylum-level taxonomic classification of bacteria in fecal DNA [1] | concentration at 19 h [2] [ng/mL] | CRO serum levels ([2]; 1 h) [µg/mL] | CRO serum levels ([2]; 6 h) [µg/mL] | number of bacterial taxa, Genus [3] | number of bacterial taxa, Species [3] | number of bacterial taxa, Strain/sub-species [3] | abundance of Methanobrevibacter smithii [3, 5] | abundance of Turicibacter spp [3, 5] | bacteria levels on LB+amp plates [4]
1 | CO/N=C(\C(=O)N[C@@H]1C(=O)N2C(C(=O)O)=C(CSc3nc(=O)c(=O)[nH]n3C)CS[C@H]12)c1csc(N)n1 [CRO, ceftriaxone] | dysbiosis | < 500 | 79.43 ± 12.08 | 5.83 ± 1.15 | 32 | 70 | 102 | overabundance | underrepresentation | at least two log lower levels
2 | CCC[C@@H]1C[C@@H](C(=O)N[C@@H]([C@H]2O[C@H](SC)[C@H](O)[C@@H](O)[C@H]2O)[C@H](C)Cl)N(C)C1 [clindamycin] | – | – | – | – | 7 | 12 | 17 | – | – | –
